Assay type in all cases: cell-based
The subject of test [1] is PD1-ss+10aa/Gaussia Luciferase. Description: Dox-Induced PD1-ss-Gluc Assay. The method in brief:
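Stable cell line carrying PD1-ss+10aa/Gaussia luciferase cDNA under T-REx (doxycycline-inducible) control, plated the day before assay. Compound dilutions in DMSO/media containing doxycycline added and incubated at 37° C, 5% CO2. Undefined stereocentres: data refer to stereoisomer mixtures.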

Test [2] has as its system IL-2-FL/Gaussia Luciferase. Description: Dox Induced IL2-FL-Gluc Assay. The method in brief: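 Stable T-REx cell line expressing doxycycline-inducible IL-2-FL/Gaussia luciferase cDNA, plated the day before assay. Compound dilutions in DMSO/media containing doxycycline added and incubated at 37° C., 5% CO2. Unspecified stereochemistry means data refer to a stereoisomer mixture.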

Test [3] deals with human multiple myeloma cell line U266B1. Description: U266 Cell Viability Assay. To be noted: U-266, 48 hr, U266B1 cells, Celltiter-Glo, read-out: 48 hr U266 Viability Celltiter-Glo: Mean EC50. The method in brief: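 U266B1 myeloma cells treated with compound dilutions in DMSO/media for 48 h at 37 °C, 5% CO2. Viability read by CellTiter-Glo luminescence. Stereochemically undefined structures were tested as stereoisomer mixtures.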
A general note: Cellular ATP, detected with luciferase, serves as a proxy for viable cell number.

Test [4] deals with HER3-ss+4aa/Gaussia Luciferase. Description: Dox-Induced Her3-ss-Gluc Assay. The method in brief: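 Stable T-REx cell line carrying a doxycycline-regulated HER3-ss+4aa/Gaussia luciferase insert, plated the day before assay. Compound dilutions in DMSO/media with doxycycline added, then incubated at 37° C., 5% CO2. Stereoisomer mixtures tested where stereochemistry is not drawn.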

Test [5] deals with human multiple myeloma cell line NCI-H929. Description: H929 Cell Viability Assay. To be noted: 48 hr, NCI-H929 cells, Celltiter-Glo, read-out: 48 hr H929 Viability Celltiter-Glo: Mean EC50. As to the method: Plates were incubated at 37° C., 5% CO2 for 48 hours. After 48 hours, Celltiter-Glo® (Promega) was added to each well and luciferase signal was quantified using Tecan Infinite M1000 Pro for cell viability determination.
For chemical structures that include one or more stereoisomers, but are illustrated without indicating stereochemistry, the assay data refers to a mixture of stereoisomers.

For test [6], the system named is TNFα-FL/Gaussia Luciferase. The experiment in a line: Dox Induced TNFα-FL-Gluc Assay. The method in brief: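 A stable T-REx cell line carrying doxycycline-inducible TNFα-FL/Gaussia luciferase was plated the day before assay. Compound dilutions in DMSO/media containing doxycycline were then added and incubated at 37° C, 5% CO2.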
[7] abbreviates: 24 hr doxycycline induction, 293FRT/TO cells, Gaussia luciferase signal; read-out: 24 hr Dox Inducible PD1ssGluc 293FRT/TO: Mean IC50.
[8] abbreviates: 24 hr doxycycline induction, 293FRT/TO cells, Gaussia luciferase signal; read-out: 24 hr Dox Inducible IL2FLGIuc 293FRT/TO: Mean IC50.
Setting [9] is: 24 hr doxycycline induction, 293FRT/TO cells, Gaussia luciferase signal; read-out: 24 hr Dox Inducible Her3(ss + 4)Gluc 293FRT/TO: Mean IC50.
[10] abbreviates: 24 hr doxycycline induction, 293FRT/TO cells, Gaussia luciferase signal; read-out: 24 hr Dox Inducible TNFaFLGluc 293FRT/TO: Mean IC50.
Setting [11] is: 24 hr, doxycycline-induced, 293FRT/TO cells; read-out: 24 hr Dox Inducible PD1ssGluc 293FRT/TO: Mean IC50.
[12] abbreviates: 24 hr, doxycycline-induced, 293FRT/TO cells; read-out: 24 hr Dox Inducible IL2FLGIuc 293FRT/TO: Mean IC50.
Setting [13] is: 24 hr, doxycycline-induced, 293FRT/TO cells; read-out: 24 hr Dox Inducible Her3(ss + 4)Gluc 293FRT/TO: Mean IC50.
[14] abbreviates: 24 hr, doxycycline-induced, 293FRT/TO cells; read-out: 24 hr Dox Inducible TNFaFLGluc 293FRT/TO: Mean IC50.

Like-named read-outs stand apart in the source and are kept apart here. A value given as a limit tells only on which side of the number the result lay.

Consider 17 molecules from patent US20220153732A1, “PROTEIN SECRETION INHIBITORS” (KEZAR LIFE SCIENCES, priority 2019, published 2022).

Turning to `CC(C)(CCc1ccccn1)c1csc(NC(=O)c2cccn2Cc2ccncc2)n1` [Compound A262], the IC50 is 1460 nM in test [1] (setting [7]), 3120 nM in test [2] (setting [8]), 3140 nM in test [4] (setting [9]) and 24200 nM in test [6] (setting [10]). For the same molecule, the half-maximal effective concentration (EC50) in test [3] and in test [5] was > 25000 nM in each case.

For the molecule `O=C(Nc1nc(/C=C/c2ccc(OC(F)(F)F)cn2)cs1)c1cccn1Cc1ccncc1` [Compound A327], the IC50 was 16 nM in test [1] (setting [11]), 999 nM in test [2] (setting [12]), 469 nM in test [4] (setting [13]) and 4490 nM in test [6] (setting [14]). For the same molecule, the results for the half-maximal effective concentration (EC50) in test [3] and in test [5] were > 25000 nM and 15100 nM, respectively.

As for `CO[C@H]1CC[C@@H](/C=C/c2csc(NC(=O)c3cccn3Cc3ccncc3)n2)CC1` [Compound A254, N-(4-(2-((1s,4s)-4-methoxycyclohexyl)vinyl)thiazol-2-yl)-1-(pyridin-4-ylmethyl)-1H-pyrrole-2-carboxamide], the IC50 worked out at 74 nM in test [1] (setting [7]), 554 nM in test [2] (setting [8]), 189 nM in test [4] (setting [9]) and 1530 nM in test [6] (setting [10]). The EC50 in test [3] was found to be 4130 nM; in test [5], 4100 nM.

Turning to `CC(=O)N(C)c1ccc(Cn2cccc2C(=O)Nc2nc(C(C)(C)OC(C)C)cs2)cc1` [Compound A99, N-(4-(2-isopropoxypropan-2-yl)thiazol-2-yl)-1-(4-(N-methylacetamido)benzyl)-1H-pyrrole-2-carboxamide], the IC50 in test [1] (setting [7]) was 19900 nM; in test [2] (setting [8]), > 25000 nM; in test [4] (setting [9]), > 25000 nM; in test [6] (setting [10]), > 25000 nM. The concentration giving a half-maximal response (EC50) in test [3] and in test [5] was > 25000 nM throughout.

For the molecule `CCc1nc(NC(=O)c2cccn2Cc2ccncc2)sc1C` [Compound A32, N-(4-ethyl-5-methylthiazol-2-yl)-1-(pyridin-4-ylmethyl)-1H-pyrrole-2-carboxamide], the IC50 in test [1] (setting [7]) is 633 nM; in test [2] (setting [8]) it was 1980 nM; in test [4] (setting [9]), 1330 nM; in test [6] (setting [10]), > 20300 nM. The EC50 in test [3] and in test [5] was > 25000 nM in each case.

For the molecule `O=C(Nc1nc([C@H]2CC[C@@H]2c2ccccc2)cs1)c1cccn1Cc1ccncc1` [Compound A331], the IC50 amounted to 64 nM in test [1] (setting [11]), 178 nM in test [2] (setting [12]), 82 nM in test [4] (setting [13]) and 423 nM in test [6] (setting [14]). The EC50 in test [3] is > 25000 nM; in test [5], 4720 nM.

`Cc1sc(NC(=O)c2cccn2Cc2ccncc2)nc1C(C)C` [Compound A38]: the IC50 in test [1] (setting [7]) came out at 706 nM; in test [2] (setting [8]), 1410 nM; in test [4] (setting [9]), 1200 nM; in test [6] (setting [10]) it was 14800 nM. The EC50 in test [3] and in test [5] was > 25000 nM in each case.

For the molecule `CC(C)c1csc(NC(=O)[C@@H]2CCCN2C(=O)c2ccncc2)n1` [Compound B20, (S)-1-isonicotinoyl-N-(4-isopropylthiazol-2-yl)pyrrolidine-2-carboxamide], the IC50 in test [1] (setting [11]), in test [2] (setting [12]), in test [4] (setting [13]) and in test [6] (setting [14]) was > 25000 nM throughout. Also, the EC50 in test [3] and in test [5] was > 25000 nM each time.

On to `CC(C)OC(C)(C)c1csc(NC(=O)c2cccn2CCCc2ccncc2)n1` [Compound A11, N-(4-(2-isopropoxypropan-2-yl)thiazol-2-yl)-1-(3-(pyridin-4-yl)propyl)-1H-pyrrole-2-carboxamide], for which the IC50 amounted to 115 nM in test [1] (setting [7]), 61 nM in test [2] (setting [8]), 128 nM in test [4] (setting [9]) and 2390 nM in test [6] (setting [10]). Also, the EC50 is > 25000 nM in test [3] and 8690 nM in test [5].

`CC(C)(C)[Si](O[C@H]1CCN(c2ccccc2)[C@@H]1c1csc(NC(=O)c2cccn2Cc2ccncc2)n1)(c1ccccc1)c1ccccc1` [Compound A353]: the IC50 in test [1] (read-out: 24 hr Dox Inducible PD1ssGluc 293FRT/TO: Mean IC50; 24 hr, doxycycline-induced, 293FRT/TO cells) is 5 nM; in test [2] (read-out: 24 hr Dox Inducible IL2FLGIuc 293FRT/TO: Mean IC50; 24 hr, doxycycline-induced, 293FRT/TO cells), 11 nM; in test [4] (read-out: 24 hr Dox Inducible Her3(ss + 4)Gluc 293FRT/TO: Mean IC50; 24 hr, doxycycline-induced, 293FRT/TO cells) it was 12 nM; in test [6] (read-out: 24 hr Dox Inducible TNFaFLGluc 293FRT/TO: Mean IC50; 24 hr, doxycycline-induced, 293FRT/TO cells), 13 nM. In addition, the EC50 in test [3] is > 25000 nM; in test [5], 303 nM.

`O=C(Nc1nc(/C=C/c2ccoc2)cs1)c1cccn1Cc1ccncc1` [Compound A222, N-(4-(2-(furan-3-yl)vinyl)thiazol-2-yl)-1-(pyridin-4-ylmethyl)-1H-pyrrole-2-carboxamide]: the IC50 was 348 nM in test [1] (setting [7]), 2270 nM in test [2] (setting [8]), 1800 nM in test [4] (setting [9]) and 7700 nM in test [6] (setting [10]). Moreover, the 50% effective concentration (EC50) in test [3] is > 25000 nM; in test [5], 19100 nM.

In the case of `CC(C)c1csc(CNC(=O)c2cccn2Cc2ccncc2)n1` [Compound A117, N-((4-isopropylthiazol-2-yl)methyl)-1-(pyridin-4-ylmethyl)-1H-pyrrole-2-carboxamide], the IC50 in test [1] (setting [7]), in test [2] (setting [8]), in test [4] (setting [9]) and in test [6] (setting [10]) was > 25000 nM throughout. The EC50 in test [3] and in test [5] was > 25000 nM in each case.

For the molecule `O=C(Nc1nc([C@H]2CCCN2c2ccc3c(c2)OC(F)(F)O3)cs1)c1cccn1Cc1ccncc1` [Compound A328], the IC50 in test [1] (setting [11]) worked out at 9 nM; in test [2] (setting [12]), 14 nM; in test [4] (setting [13]) it was 12 nM; in test [6] (setting [14]), 105 nM. The figures for the EC50 in test [3] and in test [5] were 16500 nM and 381 nM, respectively.

With `O=C(Nc1nc(Cc2ccccc2)cs1)c1cccn1Cc1ccncc1NCc1ccccc1` [Compound A213, 1-((3-(benzylamino)pyridin-4-yl)methyl)-N-(4-benzylthiazol-2-yl)-1H-pyrrole-2-carboxamide], the IC50 was 12100 nM in test [1] (setting [7]), 6050 nM in test [2] (setting [8]), 4940 nM in test [4] (setting [9]) and > 25000 nM in test [6] (setting [10]). Also, the EC50 in test [3] is 17700 nM; in test [5], 13800 nM.

With `O=C(Nc1nc(/C=C/c2ccc(C(F)(F)F)cc2)cs1)c1cccn1Cc1ccncc1` [Compound A219, 1-(pyridin-4-ylmethyl)-N-(4-(4-(trifluoromethyl)styryl)thiazol-2-yl)-1H-pyrrole-2-carboxamide], the IC50 was 48 nM in test [1] (setting [7]), 443 nM in test [2] (setting [8]), 234 nM in test [4] (setting [9]) and 946 nM in test [6] (setting [10]). In addition, the 50% effective concentration (EC50) amounted to 13700 nM in test [3] and 8600 nM in test [5].

Take `C[C@H](OC(C)(C)c1csc(NC(=O)c2cccn2CCCc2ccncc2)n1)c1ccccc1` [Compound A6, (S)-N-(4-(2-(1-phenylethoxy)propan-2-yl)thiazol-2-yl)-1-(3-(pyridin-4-yl)propyl)-1H-pyrrole-2-carboxamide]: the IC50 was determined as 46 nM in test [1] (setting [7]), 78 nM in test [2] (setting [8]), 88 nM in test [4] (setting [9]) and 541 nM in test [6] (setting [10]). Besides, the half-maximal effective concentration (EC50) in test [3] was found to be 6220 nM; in test [5], 2170 nM.

In the case of `O=C(Nc1nc(/C=C/c2ccc(F)cc2)cs1)c1cccn1Cc1ccncc1` [Compound A220, N-(4-(4-fluorostyryl)thiazol-2-yl)-1-(pyridin-4-ylmethyl)-1H-pyrrole-2-carboxamide], the IC50 in test [1] (setting [7]) is 86 nM; in test [2] (setting [8]), 628 nM; in test [4] (setting [9]), 329 nM; in test [6] (setting [10]) it was 3750 nM. Further, the EC50 in test [3] and in test [5] was > 25000 nM in each case.

The term EC50 denotes the midpoint of the concentration-response curve.
